Test: gradient 5% acetonitrile 3 min, to 50% in 2 min, to 85% in 15 min, held 3 min, 100 µL/min
Details: column: Zorbax Extend-C18 2.1 x 50 mm; eluents: water / acetonitrile, 0.1% formic acid
How it was run: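 Using water and acetonitrile that each contained 0.1% formic acid, mixtures of ~100 pure standards were separated at 100 μL/min on a Zorbax Extend-C18 column (2.1 × 50 mm, 1.8 μm). The HPLC fed a quadrupole time-of-flight mass spectrometer working in positive and negative ionization mode, with dead and dwell volumes of 40 μL and 900 μL. Data were acquired over 3 months. Retention time was read from computationally picked adduct peaks after manual inspection of each.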

Question: With `CCOc1ccc(S(=O)(=O)N2CCC(C(=O)NC)CC2)cc1C` as the molecule, how does the RP-LC retention time read?
Answer: The RP-LC retention time was 761 s.

Question: With `O=C(C1CCN(c2cnc3nccnc3c2)CC1)N1CCC(Cc2ccccc2)CC1` as the molecule, how does the RP-LC retention time read?
Answer: Its RP-LC retention time is 889 s.

Question: Which RP-LC retention time does the source give for `COc1ccc(-c2nnc(Cc3nc(-c4ccc(F)cc4)no3)o2)cc1OC` here?
Answer: Its RP-LC retention time is 907 s.

Question: With `CCn1c(=O)oc2cc(-c3noc(-c4ccc(Cl)cc4OC)n3)ccc21` as the molecule, how does the RP-LC retention time read?
Answer: The RP-LC retention time was 1170 s.

Question: For `COc1ccccc1-c1nc2nccc(-c3ccc(Cl)cc3)n2n1`, which RP-LC retention time is on record?
Answer: Its RP-LC retention time is 956 s.

Question: With `Cc1ccc(C(=O)Nc2nc(-c3ccc4c(c3)NC(=O)C(C)O4)cs2)cc1` (configuration not stated) as the molecule, how does the RP-LC retention time read?
Answer: Its RP-LC retention time is 918 s.

Question: For `CCCCN(CC)c1nc(-c2ccc([N+](=O)[O-])cc2)nc2ccccc12`, which RP-LC retention time is on record?
Answer: The RP-LC retention time was 975 s.

Question: Which RP-LC retention time does the source give for `CS(=O)(=O)N1CCC(C(=O)Nc2nnc(-c3ccc(F)cc3)o2)CC1` here?
Answer: The RP-LC retention time was 636 s.

Question: Which RP-LC retention time does the source give for `O=C(Cn1cccc1-c1nnc(-c2ccccc2)o1)Nc1ccc(F)c(F)c1` here?
Answer: The RP-LC retention time was 997 s.

Question: With `Cc1ccc(C(=O)Nc2cnc(-c3cccc(Cl)c3)nc2)s1` as the molecule, how does the RP-LC retention time read?
Answer: Its RP-LC retention time is 1140 s.

Question: Which RP-LC retention time does the source give for `Cc1nc(-c2ccc(C(=O)NC3CCCCC3)cc2)cs1` here?
Answer: The RP-LC retention time was 900 s.

Question: For `COc1ccc(CNC(=O)N2CCC3(C2)C(=O)N(C)c2ccc(OC)cc23)cc1` (configuration not stated), which RP-LC retention time is on record?
Answer: Its RP-LC retention time is 747 s.

Question: With `CC(C)N1CCc2c(sc(NC(=O)COc3ccc(Cl)cc3Cl)c2C(N)=O)C1` as the molecule, how does the RP-LC retention time read?
Answer: Its RP-LC retention time is 598 s.

Question: For `CCn1nc(C)n2cc(S(=O)(=O)NCc3ccc(F)cc3F)cc2c1=O`, which RP-LC retention time is on record?
Answer: Its RP-LC retention time is 856 s.

Question: With `Cc1nc(-c2cn(C(C)C)c3ncccc23)sc1C(=O)NCCC(C)C` as the molecule, how does the RP-LC retention time read?
Answer: Its RP-LC retention time is 1070 s.

Question: With `Cc1ccccc1S(=O)(=O)N1CCCC(CCC(=O)O)C1` (configuration not stated) as the molecule, how does the RP-LC retention time read?
Answer: The RP-LC retention time was 774 s.

Question: For `Cc1ccc(-c2nc3n(c2CNC(=O)c2ccco2)CCS3)cc1`, which RP-LC retention time is on record?
Answer: The RP-LC retention time was 639 s.

Question: Which RP-LC retention time does the source give for `COCC(=O)N(CC(=O)N1CCc2sccc2C1COc1ccc(Cl)c(C)c1)C1CC1` (configuration not stated) here?
Answer: Its RP-LC retention time is 960 s.

Question: Which RP-LC retention time does the source give for `CCc1ccc(N2CC(c3nc(-c4ccc(OC)c(OC)c4)no3)CC2=O)cc1` (configuration not stated) here?
Answer: The RP-LC retention time was 989 s.

Question: With `COc1cccc(S(=O)(=O)N2CCC(CN3CCCCCC3)CC2)c1` as the molecule, how does the RP-LC retention time read?
Answer: The RP-LC retention time was 642 s.

Question: With `O=C(CC1CCN(C(=O)Nc2ccc3c(c2)OCO3)CC1)N1CCCCC1` as the molecule, how does the RP-LC retention time read?
Answer: Its RP-LC retention time is 712 s.

Question: With `Cc1cc(C)n(-c2cc(N3CCCC3)ncn2)n1` as the molecule, how does the RP-LC retention time read?
Answer: Its RP-LC retention time is 764 s.

Question: Which RP-LC retention time does the source give for `COc1ccccc1NS(=O)(=O)c1cc2c(s1)CCN(C(=O)C1CCC1)C2` here?
Answer: Its RP-LC retention time is 890 s.

Question: With `O=C(c1ccco1)N1CCC(Cc2noc(C3CC3)n2)C1` (configuration not stated) as the molecule, how does the RP-LC retention time read?
Answer: Its RP-LC retention time is 709 s.

Question: With `COC(=O)c1cn(CC(=O)Nc2cc(OC)ccc2OC)c2ccccc12` as the molecule, how does the RP-LC retention time read?
Answer: The RP-LC retention time was 946 s.

Question: For `CCCCNc1nc(-c2ccccc2F)nc2ccccc12`, which RP-LC retention time is on record?
Answer: The RP-LC retention time was 730 s.

Question: With `O=C(Nc1ccc2c(c1)OCCO2)N1CCC(n2c(-c3ccoc3)nc3cccnc32)C1` (configuration not stated) as the molecule, how does the RP-LC retention time read?
Answer: Its RP-LC retention time is 648 s.

Question: Which RP-LC retention time does the source give for `Cc1ccc(NC(=O)N2C[C@@H](F)C[C@H]2C(=O)N2CCCCC2)cc1Cl` here?
Answer: The RP-LC retention time was 813 s.

Question: For `CC(C)NC(=O)CN1CCN(Cc2nc(-c3ccc(N4CCCCC4)nc3)no2)CC1`, which RP-LC retention time is on record?
Answer: Its RP-LC retention time is 594 s.

Question: Which RP-LC retention time does the source give for `CCOc1cccc(C2C(C(=O)OC(C)C)=C(C)NC3=C2C(=O)C(C(=O)OC)C(C)C3)c1` (configuration not stated) here?
Answer: The RP-LC retention time was 968 s.

Question: With `Cc1cccc(C)c1NC(=O)N(C)CC1CCOC1` (configuration not stated) as the molecule, how does the RP-LC retention time read?
Answer: The RP-LC retention time was 666 s.

Question: Which RP-LC retention time does the source give for `CCCNC(=O)C1CCCN(c2ccc(SCC(=O)Nc3ccccc3C(=O)OC)nn2)C1` (configuration not stated) here?
Answer: The RP-LC retention time was 705 s.

Question: With `Cn1nccc1-c1cccc(-c2noc(-c3ccc(C#N)cc3)n2)c1` as the molecule, how does the RP-LC retention time read?
Answer: Its RP-LC retention time is 1050 s.

Question: For `Cc1nc(C)c(C(=O)NCC2Cn3cccc3C(=O)N2CC(C)C)s1` (configuration not stated), which RP-LC retention time is on record?
Answer: Its RP-LC retention time is 671 s.

Question: Which RP-LC retention time does the source give for `CCn1cnc(S(=O)(=O)N2CCC(C(=O)NC3CCCCCC3)CC2)c1` here?
Answer: Its RP-LC retention time is 737 s.

Question: With `COc1ccc(NC(=O)Cn2c(=O)n(-c3ccc(F)cc3)c(=O)c3c2cc(C)n3C)c(OC)c1` as the molecule, how does the RP-LC retention time read?
Answer: The RP-LC retention time was 832 s.

Question: Which RP-LC retention time does the source give for `Cc1noc(C)c1S(=O)(=O)N1CCC(c2noc(-c3ccncc3)n2)C1` (configuration not stated) here?
Answer: The RP-LC retention time was 789 s.

Question: For `O=C(CNS(=O)(=O)c1ccc(F)cc1)N1CCCC1c1nc(-c2ccc(Cl)cc2)no1` (configuration not stated), which RP-LC retention time is on record?
Answer: Its RP-LC retention time is 990 s.

Question: For `CCc1nc2cc(-c3noc(-c4ccc(CS(=O)(=O)c5ccccc5)cc4)n3)ccc2o1`, which RP-LC retention time is on record?
Answer: The RP-LC retention time was 1140 s.

Question: For `CCOC(=O)C1=C(CN(C)Cc2ccccc2)NC(=O)NC1c1ccc(OC)cc1` (configuration not stated), which RP-LC retention time is on record?
Answer: Its RP-LC retention time is 578 s.

Question: Which RP-LC retention time does the source give for `COCCc1nncn1C1CN(Cc2cccc(OC(F)(F)F)c2)C1` here?
Answer: Its RP-LC retention time is 606 s.

Question: For `CC(C)N1C(=O)c2cccnc2Sc2cc(NC(=O)c3ccccc3)ccc21`, which RP-LC retention time is on record?
Answer: The RP-LC retention time was 864 s.

Question: Which RP-LC retention time does the source give for `CC1CCN(S(=O)(=O)c2ccc3nc(N4CCN(c5ccccn5)CC4)ccc3c2)CC1` here?
Answer: Its RP-LC retention time is 691 s.

Question: Which RP-LC retention time does the source give for `CN1c2ccc(F)cc2C(=O)NC12CCN(C(=O)c1ccc3c(c1)OCO3)CC2` here?
Answer: The RP-LC retention time was 724 s.

Question: For `Cn1ccc2ccn(CC(=O)Nc3ccc(Br)cc3)c(=O)c21`, which RP-LC retention time is on record?
Answer: The RP-LC retention time was 795 s.

Question: For `COc1ccc(NC(=O)Nc2c(-c3ccc(C)cc3)nc3ccccn23)cc1OC`, which RP-LC retention time is on record?
Answer: The RP-LC retention time was 927 s.

Question: With `O=C(CCC1CCCC1)N1CCc2c([nH]c3ccccc23)C1c1ccc(F)cc1` (configuration not stated) as the molecule, how does the RP-LC retention time read?
Answer: The RP-LC retention time was 1410 s.

Question: Which RP-LC retention time does the source give for `O=[N+]([O-])c1c(NCCO)cc(N2CCN(c3ccccn3)CC2)c2nonc12` here?
Answer: Its RP-LC retention time is 579 s.

Question: Which RP-LC retention time does the source give for `CCOc1ccccc1NC(=O)N1C[C@@H](F)C[C@H]1C(=O)N1CCCCC1` here?
Answer: The RP-LC retention time was 772 s.

Question: Which RP-LC retention time does the source give for `Cc1noc(-c2nc(-c3cccc(C(F)(F)F)c3)no2)n1` here?
Answer: Its RP-LC retention time is 1080 s.

Question: Which RP-LC retention time does the source give for `C=CCNC(=O)c1nc(C(=O)N2CCc3ccccc3C2)cs1` here?
Answer: The RP-LC retention time was 811 s.

Question: For `O=C(CCC(=O)N1CC2CCCN2c2ccccc21)NCCN1CCOCC1` (configuration not stated), which RP-LC retention time is on record?
Answer: The RP-LC retention time was 620 s.

Question: Which RP-LC retention time does the source give for `O=C(Nc1ccc(F)cc1)C1CCCN(c2nnc3ccc(Cl)cn23)C1` (configuration not stated) here?
Answer: The RP-LC retention time was 689 s.

Question: Which RP-LC retention time does the source give for `Cc1ccc(Sc2nccnc2N2CCCC(C(=O)NC3CCCCC3)C2)cc1` (configuration not stated) here?
Answer: Its RP-LC retention time is 1150 s.

Question: Which RP-LC retention time does the source give for `Cn1nc(-c2nc(Cc3ccccc3)no2)c2c1CCN(C(=O)NC(C)(C)C)C2` here?
Answer: The RP-LC retention time was 889 s.

Question: With `O=C(O)c1ccc2cc(-c3ccc(O)c(C4C5CC6CC(C5)CC4C6)c3)ccc2c1` (configuration not stated) as the molecule, how does the RP-LC retention time read?
Answer: The RP-LC retention time was 1240 s.

Question: For `O=C(Cn1nc2c3ccccc3ncn2c1=O)Nc1ccc2c(c1)OCO2`, which RP-LC retention time is on record?
Answer: The RP-LC retention time was 665 s.

Question: For `CN1CCN(C(=O)C2CCN(S(=O)(=O)c3cc(C(=O)N4CCCCCC4)cs3)CC2)CC1`, which RP-LC retention time is on record?
Answer: The RP-LC retention time was 619 s.

Question: Which RP-LC retention time does the source give for `CCOc1cccc(CN2C[C@@H]3C(=O)N(CCCN4CCCC4=O)C(=O)[C@@H]3C2)c1` here?
Answer: The RP-LC retention time was 617 s.

Question: With `O=S(=O)(c1cc(-c2nnc(C3CC3)o2)co1)N1CCN(c2ccccc2)CC1` as the molecule, how does the RP-LC retention time read?
Answer: The RP-LC retention time was 960 s.

Question: For `CCN(c1ccccc1)S(=O)(=O)c1cc(-c2[nH]ncc2C(=O)N2CCCCC2)oc1C`, which RP-LC retention time is on record?
Answer: The RP-LC retention time was 822 s.

Question: With `Cc1nc(-c2nc(-c3cccs3)cs2)cn1CC(=O)NCc1ccccc1` as the molecule, how does the RP-LC retention time read?
Answer: Its RP-LC retention time is 760 s.

Question: With `CCOc1ccc(NC(=O)CN2C(=O)c3ccccc3C2=O)c([N+](=O)[O-])c1` as the molecule, how does the RP-LC retention time read?
Answer: The RP-LC retention time was 839 s.

Question: With `Cc1cccc(Oc2cc(N3CCC(C(=O)NCCCOC(C)C)CC3)ncn2)c1C` as the molecule, how does the RP-LC retention time read?
Answer: Its RP-LC retention time is 883 s.

Question: With `CCCC(=O)N1C[C@@H]2CCCN3CCC[C@@H]([C@H]23)[C@H]1CCCC(=O)NCC1CC1` as the molecule, how does the RP-LC retention time read?
Answer: The RP-LC retention time was 587 s.

Question: For `O=C(O)CC(CC(=O)NCc1ccccc1)c1ccc(Br)cc1` (configuration not stated), which RP-LC retention time is on record?
Answer: Its RP-LC retention time is 712 s.

Question: With `c1ccc2c(c1)[nH]c1c3ccccc3sc21` as the molecule, how does the RP-LC retention time read?
Answer: Its RP-LC retention time is 1160 s.

Reference: the METLIN SMRT retention time set (Domingo-Almenara et al. 2019)
